This note sets out measurements from ChEMBL document CHEMBL4393729, “Sleep modulating agents” (Bioorg Med Chem Lett, 2019).

The nature of data set [1]: Half life in human at 200 mg. The data set is classed as ADME.
Data set [2] is described as follows: Half life in human at 5 mg administered three times in a day. The data set is classed as ADME. Conditions: in vivo.
A short description of data set [3]: Half life in human at 150 mg. The data set is classed as ADME.
Data set [4] in a line: Half life in human at 300 mg bid. The data set is classed as ADME. Conditions: in vivo.
Data set [5] can be described thus: Half life in human at 75 mg. The data set is classed as ADME.
Data set [6] can be described thus: Half life in human at 1 to 6 mg. The data set is classed as ADME.
Data set [7] can be described thus: Half life in human at 1 to 2 mg. It is filed as ADME.
A short description of data set [8]: Half life in human at 1 to 3 mg. It is filed as ADME.
The nature of data set [9]: Half life in human at 1 mg. It is filed as ADME.
A short description of data set [10]: Half life in human at 20 mg. The data set is classed as ADME.
The nature of data set [11]: Half life in human up to 3600 mg. It is filed as ADME.
Data set [12] can be described thus: Half life in human. It is filed as ADME.
Data set [13] is described as follows: Half life in human at 20 to 50 mg. The data set is classed as ADME.
Data set [14] in a line: Half life in human at 18 to 36 mg. It is filed as ADME.
The nature of data set [15]: Half life in human at 25 to 400 mg.
Data set [16] can be described thus: Half life in human at 8 mg treated 30 mins before bedtime. It is filed as ADME. Particulars: in vivo.
A short description of data set [17]: Oral bioavailability in human. The data set is classed as ADME, organism-based. Conditions: in vivo.
Data set [18] can be described thus: Half life in human at 2250 mg administered as two doses. It is filed as ADME. Particulars: in vivo.
Data set [19] is described as follows: Half life in human at 75 to 300 mg. It is filed as ADME.
The nature of data set [20]: Half life in human at 5 to 20 mg. The data set is classed as ADME.
Data set [21] can be described thus: Half life in human at 5 to 10 mg. It is filed as ADME.

For the compound `NC(=O)C[S@+]([O-])C(c1ccccc1)c1ccccc1` [(S)-MODAFINIL], the half-life (in general, the time in which the quantity being followed falls by half) in data set [1] is 4 h. In turn, `NC[C@H](CC(=O)O)c1ccc(Cl)cc1` [ARBACLOFEN] came in with a half-life in [2] of 2 to 4 h.

As for `NC(=O)C[S@@+]([O-])C(c1ccccc1)c1ccccc1` [ARMODAFINIL], the half-life in data set [1] and in data set [3] was 15 h in each case.

Compound `CC[C@H]1OC(=O)[C@H](C)[C@@H](O[C@H]2C[C@@](C)(OC)[C@@H](O)[C@H](C)O2)[C@H](C)[C@@H](O[C@@H]2O[C@H](C)C[C@H](N(C)C)[C@H]2O)[C@](C)(OC)C[C@@H](C)C(=O)[C@H](C)[C@@H](O)[C@]1(C)O` [CLARITHROMYCIN] gave a half-life in data set [4] of 5 to 7 h. Regarding `CN(C)CC(c1ccc(O)cc1)C1(O)CCCCC1` (stereo unspecified) [DESVENLAFAXINE], the half-life in [5] was 11 h. The compound `CN(C)CC/C=C1\c2ccccc2COc2ccccc21` [E-DOXEPIN] came in with a half-life in data set [6] of 8 to 24 h. In [7], `Clc1ccc2c(c1)C(c1ccccc1)=NCc1nncn1-2` [ESTAZOLAM] displayed a half-life of 10 to 24 h. Turning to `CN1CCN(C(=O)O[C@H]2c3nccnc3C(=O)N2c2ccc(Cl)cn2)CC1` [ESZOPICLONE], in [8], the half-life is 6 h. `CCOC(=O)c1ncn2c1CN(C)C(=O)c1cc(F)ccc1-2` [FLUMAZENIL] displayed a half-life in data set [9] of 0.6 to 1.2 h. Compound `CNCCC(Oc1ccc(C(F)(F)F)cc1)c1ccccc1` (stereo unspecified) [FLUOXETINE] returned a half-life in data set [10] of 24 to 96 h.

On to `NCC1(CC(=O)O)CCCCC1` [GABAPENTIN], for which the half-life in data set [11] is 5 to 7 h. Regarding `OC1(c2ccc(Cl)cc2)c2ccccc2C2=NCCN21` (stereo unspecified) [MAZINDOL], the half-life in data set [8] is 10 to 13 h.

The compound `COC(=O)C(c1ccccc1)C1CCCCN1` (stereo unspecified) [METHYLPHENIDATE] gave a half-life in [10] of 2 h. As to `NCCC(Oc1ccc(C(F)(F)F)cc1)c1ccccc1` (stereo unspecified) [NORFLUOXETINE], the half-life in [12] lay in the range of 360 to 408 h. `COc1ccc2[nH]cc(CCNC(=O)c3cc(=O)cco3)c2c1` [PIROMELATINE] showed a half-life in data set [13] of 1 to 3 h. Compound `Clc1ccc(CCCOCCCN2CCCCC2)cc1` [PITOLISANT] gave a half-life in data set [14] of 10 h.

As to `OCCOCCN1CCN(C2=Nc3ccccc3Sc3ccccc32)CC1` [QUETIAPINE], in [15], the half-life is 6 h. With `CCC(=O)NCC[C@@H]1CCc2ccc3c(c21)CCO3` [RAMELTEON], the half-life in data set [16] lay in the range of 1 to 2.6 h. The bioavailability (as a rule, the share of a dose that reaches the circulation, judged against a reference dose that is usually intravenous) in data set [17] was 1.8%. `O=C([O-])CCCO.[Na+]` [SODIUM OXYBATE] gave a half-life in data set [18] of 0.6 h. For `NC(=O)OC[C@H](N)Cc1ccccc1` [SOLRIAMFETOL], the half-life in data set [19] was 6 to 8 h. In [20], `Cc1ccc(-n2nccn2)c(C(=O)N2CCN(c3nc4cc(Cl)ccc4o3)CC[C@H]2C)c1` [SUVOREXANT] came in with a half-life of 9 to 13 h. As to `CCC(=O)NC[C@@H]1C[C@H]1c1cccc2c1CCO2` [TASIMELTEON], the half-life in data set [10] lay in the range of 0.9 to 1.7 h. On to `COc1ccc(C(CN(C)C)C2(O)CCCCC2)cc1` (stereo unspecified) [VENLAFAXINE], for which the half-life in data set [5] was 5 h. Regarding `Cc1ccc(-c2nc3ccc(C)cn3c2CC(=O)N(C)C)cc1` [ZOLPIDEM], in [21], the half-life is 1.4 to 4.5 h.
